Measurements: patent US12129254B1, “Pyrimido[6′,1′:2,3]imidazo[4,5-b][1,6]naphthyridine compounds as CK2 inhibitors” (KING FAISAL UNIVERSITY, priority 2023, dated 2024)

How the values were obtained:
H1299 (lung) = assay: In vitro cytotoxic activity (MTT) assay, H1299; format: cell-based; details: Homo sapiens, NCI-H1299; H1299 (lung) cells, exposed for 96 hours; read-out: IC50, concentration of compound eliciting a 50% inhibition of cell proliferation
Method: (§1) Compounds 1-16 were screened for their in vitro cytotoxic activity utilizing a 3-(4,5-dimethyl-thiazol-2-yl)-2,5-diphenyltetrazolium bromide (MTT) assay against selected cancer human cell lines consisting of PC3 (prostate), HCT116 (colon), A375 (melanoma), H1299 (lung), MIAPaCa-2 (pancreas), HL60 (leukemia), MCF7 (breast), MDA-MB-231 (breast) (T. Mosmann, J. Immunol. Meth., 1983, 65, 55-63). The cells were cultured at 37° C. in RMPI1640 medium supplemented with 10% fetal bovine serum, 50 IU/mL penicillin, and 50 μg/mL streptomycin in a 5% CO2 incubator. All cells were sub-cultured 3 times/week by trypsinisation. Viable cells were seeded and allowed to adhere for 12 h before a test drug was added in 96-well plates at an initial density of 1.0×10^5 cells/mL. Tumour cell lines were separately exposed to various concentrations of the tested compounds followed by incubation at a temperature of 37° C. during 96 h inside a medium of fresh RMPI 1640. Cells were subsequently incubated at 37° C. using MTT at 0.5 mg/mL during 4 h. After removal of supernatant, formazan crystals were dissolved in isopropanol and the optical density was measured at 570 nm. CX-4945 was used as a positive control.

[1] = biological target: T1, recombinant human CK2 (RRββ-holoenzyme) (Homo sapiens, UniProt P68400); assay: CK2 Kinase Assay (radiometric, [γ-33P] ATP); format: biochemical; details: final ATP concentration 15 μM, 10 min at 30° C., eight concentrations; read-out: protein kinase CK2 IC50
T1 construct: purchased Millipore
T1 sequence (P68400 whole entry): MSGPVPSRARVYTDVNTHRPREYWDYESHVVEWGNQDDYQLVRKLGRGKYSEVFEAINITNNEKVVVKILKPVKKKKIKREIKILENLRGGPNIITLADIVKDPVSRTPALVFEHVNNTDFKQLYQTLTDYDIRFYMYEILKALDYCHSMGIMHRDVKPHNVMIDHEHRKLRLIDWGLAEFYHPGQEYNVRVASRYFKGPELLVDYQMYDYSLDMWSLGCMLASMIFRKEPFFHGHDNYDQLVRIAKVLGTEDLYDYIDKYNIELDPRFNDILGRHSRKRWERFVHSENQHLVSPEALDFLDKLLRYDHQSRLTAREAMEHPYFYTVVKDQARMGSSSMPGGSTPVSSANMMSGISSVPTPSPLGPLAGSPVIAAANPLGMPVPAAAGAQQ
T1 sequence (P67870 whole entry partner): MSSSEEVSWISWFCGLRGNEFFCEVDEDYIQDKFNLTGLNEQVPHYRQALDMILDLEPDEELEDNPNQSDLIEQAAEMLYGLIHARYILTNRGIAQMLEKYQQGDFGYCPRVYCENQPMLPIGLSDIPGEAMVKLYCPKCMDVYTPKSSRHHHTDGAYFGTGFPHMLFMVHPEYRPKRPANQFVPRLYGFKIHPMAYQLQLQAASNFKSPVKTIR
Method: CK2 Kinase Assay was conducted using the protocol as described in Pierre F. et al; J. Med. Chem. 2011, 54, 635-654. The tested compounds in aqueous solution were added at a volume of 10 μL to a reaction mixture comprising 10 μL of assay dilution buffer (ADB; 20 mM MOPS, pH 7.2, 25 mM β-glycerol phosphate, 5 mM EGTA, 1 mM sodium orthovanadate, and 1 mM dithiothreitol), 10 μL of substrate peptide (RRRDDDSDDD, dissolved in ADB at a concentration of 1 mM), 10 μL of recombinant human CK2 (RRββ-holoenzyme, 25 ng dissolved in ADB; Millipore). Reactions were initiated by the addition of 10 μL of ATP solution (90% 75 mMMgCl2, 75 μM ATP (final ATP concentration: 15 μM) dissolved in ADB; 10% [γ-33P] ATP (stock 1 mCi/100 μL; 3000 Ci/mmol (Perkin-Elmer) and maintained for 10 min at 30° C. The reactions were quenched with 100 μL of 0.75% phosphoric acid and then transferred to and filtered through a phosphor cellulose filter plate (Millipore). After washing each well five times with 0.75% phosphoric acid, the plate was dried under vacuum for 5 min and, following the addition of 15 μL of scintillation fluid to each well, the residual radioactivity was measured using a Wallac luminescence counter. The IC50 values were derived from eight concentrations of test inhibitors.

HL60 (leukemia) = assay: In vitro cytotoxic activity (MTT) assay, HL60; format: cell-based; details: Homo sapiens, HL-60; HL60 (leukemia) cells, exposed for 96 hours; read-out: IC50, concentration of compound eliciting a 50% inhibition of cell proliferation
Method: as §1

PC3 (prostate) = assay: In vitro cytotoxic activity (MTT) assay, PC3; format: cell-based; details: Homo sapiens, Prostate cell; PC3 (prostate) cells, exposed for 96 hours; read-out: IC50, concentration of compound eliciting a 50% inhibition of cell proliferation
Method: as §1

MDA-MB-231 (breast) = assay: In vitro cytotoxic activity (MTT) assay, MDA-MB-231; format: cell-based; details: Homo sapiens; MDA-MB-231 (breast) cells, exposed for 96 hours; read-out: IC50, concentration of compound eliciting a 50% inhibition of cell proliferation
Method: as §1

A375 (melanoma) = assay: In vitro cytotoxic activity (MTT) assay, A375; format: cell-based; details: Homo sapiens, A-375; A375 (melanoma) cells, exposed for 96 hours; read-out: IC50, concentration of compound eliciting a 50% inhibition of cell proliferation
Method: as §1

HCT116 (colon) = assay: In vitro cytotoxic activity (MTT) assay, HCT116; format: cell-based; details: Homo sapiens, HCT-116; HCT116 (colon) cells, exposed for 96 hours; read-out: IC50, concentration of compound eliciting a 50% inhibition of cell proliferation
Method: as §1

MIAPaCa-2 (pancreas) = assay: In vitro cytotoxic activity (MTT) assay, MIAPaCa-2; format: cell-based; details: Homo sapiens, MIA PaCa-2; MIAPaCa-2 (pancreas) cells, exposed for 96 hours; read-out: IC50, concentration of compound eliciting a 50% inhibition of cell proliferation
Method: as §1

MCF7 (breast) = assay: In vitro cytotoxic activity (MTT) assay, MCF7; format: cell-based; details: Homo sapiens; MCF7 (breast) cells, exposed for 96 hours; read-out: IC50, concentration of compound eliciting a 50% inhibition of cell proliferation
Method: as §1

With `Clc1cccc(Nc2c3cnccc3nc3c2nc2ccncn23)c1` [Compound 1, N-(3-chlorophenyl)pyrimido[6′,1′:2,3]imidazo[4,5-b][1,6]naphthyridin-12-amine] the IC50 (H1299 (lung)) was 2500 nM, the IC50 [1] was 138 nM and the IC50 (HL60 (leukemia)) was 3100 nM. For the same molecule, the IC50 (PC3 (prostate)) was 2200 nM, the IC50 (MDA-MB-231 (breast)) was 4700 nM and the IC50 (A375 (melanoma)) was 3000 nM. The IC50 (HCT116 (colon)) was 1700 nM, the IC50 (MIAPaCa-2 (pancreas)) was 1400 nM and the IC50 (MCF7 (breast)) was 5900 nM.
